Measured values as given in ChEMBL document CHEMBL3045673, “Synthesis of some novel 2-substituted benzoxazoles as anticancer, antifungal, and antimicrobial agents” (2008).
Active and inactive are the calls of the source. The calls are words filed in the database; no cut-off is given here.

Tests used:
Aspergillus niger = experiment: Antifungal activity against Aspergillus niger at 50 ug/ml after 48 hr by agar plate diffusion method; assay type: functional
HepG2 = experiment: Cytotoxicity against Homo sapiens (human) HepG2 cells by MTT assay; assay type: functional, cell-based
Klebsiella pneumoniae = experiment: Antibacterial activity against Klebsiella pneumoniae at 10 ug/ml after 24 hr by disk diffusion method; assay type: functional; details: read-out: DIZ
Aspergillus flavus = experiment: Antifungal activity against Aspergillus flavus at 50 ug/ml after 48 hr by agar plate diffusion method; assay type: functional
HeLa = experiment: Cytotoxicity against Homo sapiens (human) HeLa cells by MTT assay; assay type: functional, cell-based
Pseudomonas aeruginosa = experiment: Antibacterial activity against Pseudomonas aeruginosa at 10 ug/ml after 24 hr by disk diffusion method; assay type: functional; details: read-out: DIZ
WiDr = experiment: Cytotoxicity against Homo sapiens (human) WiDr cells by MTT assay; assay type: functional, cell-based
Staphylococcus aureus = experiment: Antibacterial activity against Staphylococcus aureus at 10 ug/ml after 24 hr by disk diffusion method; assay type: functional; details: read-out: DIZ
MCF7 = experiment: Cytotoxicity against Homo sapiens (human) MCF7 cells by MTT assay; assay type: functional, cell-based

SMILES | inhibition at 50 µg/mL (Aspergillus niger) [%] | Activity (HepG2) | zone of inhibition at 10 µg/mL (Klebsiella pneumoniae) [mm] | inhibition at 50 µg/mL (Aspergillus flavus) [%] | Activity (HeLa) | zone of inhibition at 10 µg/mL (Pseudomonas aeruginosa) [mm] | Activity (WiDr) | zone of inhibition at 10 µg/mL (Staphylococcus aureus) [mm] | Activity (MCF7)
COc1ccc(N/N=C(\C#N)c2nc3cc(Cl)ccc3o2)cc1 | 65 | Active | 5 | 50 | Active | 5 | Active | 10 | Active
COc1cc(/C=C(\C#N)c2nc3cc(F)ccc3o2)cc(OC)c1OC | 95 | Active | 15 | 90 | Active | 20 | Active | 20 | Active
N#C/C(=N\Nc1ccccc1)c1nc2cc(Cl)ccc2o1 |  | Active | 10 |  | Active | 10 | inactive | 10 | inactive
COc1ccc(/C=C(\C#N)c2nc3cc(Cl)ccc3o2)cc1 | 65 | Active | 10 | 65 | Active | 10 | Active | 5 | Active
N#C/C(=N\Nc1ccc(Br)cc1)c1nc2cc(Cl)ccc2o1 |  | Active | 10 |  | Active | 10 | inactive | 10 | Active
N#C/C(=N\Nc1ccc(Cl)cc1)c1nc2cc(Cl)ccc2o1 | 70 | inactive | 10 | 65 | inactive | 10 | inactive | 5 | Active
N#C/C(=C\c1ccccc1)c1nc2cc(Cl)ccc2o1 | 65 | inactive | 10 | 60 | inactive | 10 | inactive | 10 | Active
N#C/C(=C\c1ccc(O)cc1)c1nc2cc(Cl)ccc2o1 | 50 | Active | 10 | 60 | Active | 10 | inactive | 10 | inactive
N#CC(=C1CCCC1)c1nc2cc(Cl)ccc2o1 | 75 | Active | 10 | 60 | Active | 10 | Active | 15 | Active
COc1cc(/C=C(\C#N)c2nc3cc(Cl)ccc3o2)cc(OC)c1OC | 80 | Active | 10 | 85 | Active | 15 | Active | 15 | Active
N#CC(=C1CCCCC1)c1nc2cc(Cl)ccc2o1 | 60 | Active | 5 | 75 | Active | 10 | Active | 10 | inactive
